Consider two compounds from patent US20050063969A1, “Assay” (priority 2001, published 2005).

Common to all, as to format: cell-based
One test deals with K562-αvβ3 cells. Description: Adhesion of K562-αvβ3 cells to wells coated with GST-LAPβ3 (amino acids 259-269). The following applies: wells coated with 0.5 μg GST-LAPβ3; 2 mM MgCl2; antibodies 1 μg/well; FIG. 2. As for the experimental part:
K562-αvβ3 cells were allowed to attach to wells coated with 0.5 μg of GST-LAPβ3 (amino acids 259-269) in the presence of 2 mM MgCl2. Specific blocking antibodies (1 μg/well) and compounds were added as indicated. Each data point represents the mean±SD of duplicate points, and is representative of at least three identical experiments.
(§1) K562-WT (wild-type), K562-αvβ6, K562-αvβ5 and K562-αvβ3 cells were maintained in 1:1 RPMI 1640, Hepes modification (Gibco): Dulbecco's […] (DMEM), Hepes modification (Sigma) supplemented with L-glutamine (Gibco) and 10% fetal calf serum (FCS). In addition K562-αvβ3, K562-αvβ5, and K562-αvβ6 cells were supplemented with geneticin (G418, Gibco) at 1 mg/ml. All transfected cells were generated by transfecting K562 cells with pCDNA-3 constructs containing individual integrin cDNAs, using lipofectamine plus (Gibco BRL).
(§2) All proteins were coated onto Maxisorp 96-well plates (Nunclon) overnight at 4° C. […] For quantitation cells were visualised by staining with 0.1% crystal violet (Sigma) for 10 minutes then lysed in 0.5% Triton X-100 (Sigma) and read optically at 570 nm in a Wallac Victor plate reader.
(§3) The region of LAPβ3 corresponding to amino acids 259 to 269 (^259HGRGDLGRLKK^269) was expressed as a GST fusion protein and tested for the ability to support adhesion of K562-αvβ3, K562-αvβ5, and K562-αvβ6 cells. […]

A further test concerns K562-αvβ5 cells. Description: Adhesion of K562-αvβ5 cells to wells coated with GST-LAPβ3 (amino acids 259-269). The following applies: wells coated with 0.5 μg GST-LAPβ3; 0.5 mM MnCl2; antibodies 1 μg/well; FIG. 4. As for the experimental part: K562-αvβ5 cells were allowed to attach to wells coated with 0.5 μg of […] (amino acids 259-269) in the presence of 0.5 mM MnCl2. Specific blocking antibodies (1 μg/well) and compounds were added as indicated. Each data point represents the mean±SD of duplicate points, and is representative of at least three identical experiments.
as §1, §2, §3

A further test deals with K562-αvβ6 cells. Description: Adhesion of K562-αvβ6 cells to wells coated with GST-LAPβ3 (amino acids 259-269). The following applies: wells coated with 0.5 μg GST-LAPβ3; 2 mM MgCl2; antibodies 1 μg/well; FIG. 3. As for the experimental part: K562-αvβ6 cells were allowed to attach to wells coated with 0.5 μg of GST-LAPβ3 (amino-acids 259-269) in the presence of 2 mM MgCl2. Specific blocking antibodies (1 μg/well) and compounds were added as indicated. Each data point represents the mean±SD of duplicate points, and is representative of at least three identical experiments.
as §1, §2, §3

Turning to `CN(Cc1nc2ccccc2[nH]1)C(=O)c1ccc2c(c1)CN(C)C(=O)[C@H](CC(=O)O)N2` [SB223245], the “Blocking of K562-αvβ3 cell adhesion to GST-LAPβ3 (amino acids 259-269)” value in the test on K562-αvβ3 cells is given as “blocked”. In the test with K562-αvβ5 cells, the “Inhibition of K562-αvβ5 cell adhesion to GST-LAPβ3 (amino acids 259-269)” value is listed as “total blockade”. Turning to “Ac—RTDLDSLRT-NH2 (Ac-RTDLDSLRT-NH2) [GW603365A, described in WO 0037487]”, the “Blocking of K562-αvβ6 cell adhesion to GST-LAPβ3 (amino acids 259-269)” value in the test with K562-αvβ6 cells is on record as “blocked”.
